# Measurements from ChEMBL document CHEMBL5579892, “Rational Design, Synthesis, and Structure-Activity Relationship of a Novel Isoquinolinone-Based Series of HBV Capsid Assembly Modulators Leading to the Identification of Clinical Candidate AB-836” (J Med Chem, 2024).
# pEC50: −log10 of the molar value.
# What was measured:
# Hepatitis B virus = experiment: Antiviral activity against HBV infected in HepDE19 cells; assay type: functional, organism-based
# [1] = Cytotoxicity against human HepDE19 cells by CellTiter-Glo analysis; assay type: toxicity, cell-based
# [2] = Kinetic solubility in PBS at pH 7.4; assay type: physicochemical; details: read-out: Kinetic_solubility
# [3] = Microsomal stability in mouse liver microsomes assessed as intrinsic clearance; assay type: ADME, Microsome; details: read-out: CLH
# [4] = Microsomal stability in human liver microsomes assessed as intrinsic clearance; assay type: ADME, Microsome; details: read-out: CLH
SMILES,pEC50 (Hepatitis B virus),CC50 [1] [nM],solubility kinetic [2] [µM],microsomal CLint [3] [µL/min/mg],microsomal CLint [4] [µL/min/mg]
C[C@H](c1c[nH]c(=O)c2cc(F)c(F)cc12)N(C)C(=O)Nc1cccc(F)c1F,6.54,> 25000,,,
C[C@H](c1c[nH]c(=O)c2ccc(F)cc12)N(C)C(=O)Nc1ccc(F)c(Cl)c1,7.49,> 25000,82,,
C[C@H](c1c[nH]c(=O)c2cc(F)c(F)cc12)N(C)C(=O)Nc1ccc(F)c(Cl)c1,8.15,> 25000,42,23,32
COc1ncc(CNC(=O)Nc2ccc(F)c(Cl)c2)c2ccccc12,5.05,,,,
C[C@H](c1c[nH]c(=O)c2cc(F)c(F)cc12)N(C)C(=O)Nc1ccccc1,6.96,> 25000,,,
CN(Cc1c[nH]c(=O)c2ccccc12)C(=O)Nc1ccc(F)c(Cl)c1,6.33,> 25000,,,
CCCCN(C(=O)Nc1ccc(F)c(Cl)c1)C(C)c1c[nH]c(=O)c2ccccc12 (stereo not given),8.22,> 25000,,243,143
CC(c1c[nH]c(=O)c2cc(Cl)ccc12)N(C)C(=O)Nc1ccc(F)c(Cl)c1 (racemic),6.70,> 25000,,,
C[C@H](c1c[nH]c(=O)c2c(F)cc(F)cc12)N(C)C(=O)Nc1ccc(F)c(Cl)c1,7.72,> 25000,97,25,25
CCCCN(Cc1c[nH]c(=O)c2ccccc12)C(=O)Nc1ccc(F)c(Cl)c1,7.10,> 25000,,,
CC(C)CN(C(=O)Nc1ccc(F)c(Cl)c1)C(C)c1c[nH]c(=O)c2ccccc12 (stereo not given),8.15,> 25000,,> 300,260
C[C@H](c1c[nH]c(=O)c2ccc(Cl)cc12)N(C)C(=O)Nc1ccc(F)c(Cl)c1,6.92,> 25000,18,,
C[C@H](c1c[nH]c(=O)c2cc(F)c(F)cc12)N(C)C(=O)Nc1ccc(F)cc1,7.62,> 25000,190,35,17
COCCN(Cc1c[nH]c(=O)c2ccccc12)C(=O)Nc1ccc(F)c(Cl)c1,6.33,> 25000,,,
C[C@H](c1c[nH]c(=O)c2cc(F)c(F)cc12)N(C)C(=O)Nc1ccc(F)c(F)c1,7.89,> 25000,179,37,25
C[C@H](c1c[nH]c(=O)c2cc(F)c(F)cc12)N(C)C(=O)c1cc2ccc(F)cc2[nH]1,7.66,> 25000,12,33,13
COCCCN(C(=O)Nc1ccc(F)c(Cl)c1)C(C)c1c[nH]c(=O)c2ccccc12 (stereo not given),7.49,> 25000,,182,54
C[C@H](c1c[nH]c(=O)c2c(F)cccc12)N(C)C(=O)Nc1ccc(F)c(Cl)c1,7.40,> 25000,146,,
O=C(Nc1ccc(F)c(Cl)c1)N(Cc1c[nH]c(=O)c2ccccc12)C1CC1,6.09,> 25000,,,
CCN(C(=O)Nc1ccc(F)c(Cl)c1)C(C)c1c[nH]c(=O)c2ccccc12 (stereo not given),7.60,> 25000,,32,62
C[C@H](c1c[nH]c(=O)c2c(F)c(F)ccc12)N(C)C(=O)Nc1ccc(F)c(Cl)c1,7.82,> 25000,92,32,28
COc1ccc2c([C@@H](C)N(C)C(=O)Nc3ccc(F)c(Cl)c3)c[nH]c(=O)c2c1,6.74,> 25000,< 4,,

SMILES,pEC50 (Hepatitis B virus),CC50 [1] [nM],solubility kinetic [2] [µM],microsomal CLint [3] [µL/min/mg],microsomal CLint [4] [µL/min/mg]
COc1cccc2c(=O)[nH]cc([C@@H](C)N(C)C(=O)Nc3ccc(F)c(Cl)c3)c12,5.82,> 25000,,,
Cc1cc(NC(=O)N(C)[C@H](C)c2c[nH]c(=O)c3cc(F)c(F)cc23)ccc1F,8.15,> 25000,95,60,42
C[C@H](c1c[nH]c(=O)c2cc(F)c(F)cc12)N(C)C(=O)c1cc2ccccc2[nH]1,7.64,> 25000,< 4,50,26
CCCN(C(=O)Nc1ccc(F)c(Cl)c1)[C@H](C)c1c[nH]c(=O)c2ccccc12,8.05,> 25000,,190,110
COc1ccc2c(=O)[nH]cc([C@@H](C)N(C)C(=O)Nc3ccc(F)c(Cl)c3)c2c1,5.85,> 25000,42,,
C[C@H](c1c[nH]c(=O)c2cc(F)c(F)cc12)N(C)C(=O)c1nc2ccccc2[nH]1,6.12,> 25000,,,
C[C@H](c1c[nH]c(=O)c2cc(F)c(F)cc12)N(C)C(=O)Nc1cccc(Cl)c1,7.74,> 25000,72,30,32
C[C@H](c1c[nH]c(=O)c2cc(F)c(F)cc12)N(C)C(=O)[C@H]1Cc2ccccc2N1,6.52,> 25000,,,
C[C@H](c1c[nH]c(=O)c2cc(F)ccc12)N(C)C(=O)Nc1ccc(F)c(Cl)c1,7.70,> 25000,98,37,28
CC(c1c[nH]c(=O)c2ccccc12)N(C(=O)Nc1ccc(F)c(Cl)c1)C1CC1 (stereo not given),7.26,> 25000,,172,152
C[C@H](c1c[nH]c(=O)c2cc(F)c(F)cc12)N(C)C(=O)[C@@H]1Cc2ccccc2N1,7.66,> 25000,62,375,28
O=C(NCc1c[nH]c(=O)c2ccccc12)Nc1ccc(F)c(Cl)c1,5.17,> 25000,,,
COc1ncc(CN(C)C(=O)Nc2ccc(F)c(Cl)c2)c2ccccc12,5.70,,,,
C[C@H](c1c[nH]c(=O)c2c(Cl)cccc12)N(C)C(=O)Nc1ccc(F)c(Cl)c1,7.07,> 25000,< 4,,
COCCCN(Cc1c[nH]c(=O)c2ccccc12)C(=O)Nc1ccc(F)c(Cl)c1,6.89,> 25000,,,
COCCN(C(=O)Nc1ccc(F)c(Cl)c1)C(C)c1c[nH]c(=O)c2ccccc12 (stereo not given),7.04,> 25000,,238,69
C[C@H](c1c[nH]c(=O)c2cc(F)c(F)cc12)N(C)C(=O)Nc1cccc(F)c1,7.43,> 25000,> 200,35,30
C[C@H](c1c[nH]c(=O)c2cc(F)c(F)cc12)N(C)C(=O)c1cc2cc(F)c(F)cc2[nH]1,7.92,> 25000,5,22,14
CCN(Cc1c[nH]c(=O)c2ccccc12)C(=O)Nc1ccc(F)c(Cl)c1,6.80,> 25000,,,
CC(c1c[nH]c(=O)c2ccccc12)N(CCCO)C(=O)Nc1ccc(F)c(Cl)c1 (stereo not given),8.00,> 25000,,185,71
CCCN(Cc1c[nH]c(=O)c2ccccc12)C(=O)Nc1ccc(F)c(Cl)c1,7.22,> 25000,,,
